Experimental findings from patent publication US20240368096A1 (Enanta Pharmaceuticals, Inc., priority 2022, published 2024) are described below.

Structures are written as SMILES. Where only a bound is given, the exact number is not on record here.

For the test, the system named is HBV. The experiment in a line: HBV infection in HepG2-NTCP cells (HBeAg AlphaLISA in supernatants). Type of test: cell-based. Conditions: Hepatitis B virus, 192 h; HBV infection of HepG2-NTCP cells; HBeAg in supernatants at day 8 post infection; read-out: Cellular EC50. Summed up: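 Readout was day-8 supernatant HBeAg by AlphaLISA, with EC50 set against DMSO controls and binned A<0.1 μM, B 0.1-1 μM, C>1 μM. Compounds were added 2 h before HBV (2000 GE/cell, 4% PEG, 0.5% DMSO) to HepG2-NTCP A3 cells; from day 1 medium held 2.5% DMSO.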
On to `CN1[C@H](C2CCCCC2)CN(c2ccccc2)c2cc(C3CCN(C(=O)c4cnn(C)c4)CC3)c(-c3ccc(F)c(C(=O)O)c3)cc2S1(=O)=O` [Example 598], for which the EC50 – broadly, the concentration that produces a half-maximal response – was greater than 1000 nM.
With `CC(C)C[C@@H]1CN(c2ccccc2)c2cc(Oc3ccccc3F)c(-c3ccc(F)c(C(=O)O)c3)cc2S(=O)(=O)N1C` [Example 429], the EC50 was less than 100 nM.
With `CN1[C@H](C2CCC2)CN(c2ccccc2)c2cc(Cl)c(-c3ccc(C(F)(F)F)c(C(=O)O)c3)cc2S1(=O)=O` [Example 204], the EC50 was less than 100 nM.
To `CN1[C@H](C2CCCCC2)CN(c2cccc(Cl)c2)c2cc(Cl)c(-c3ccc(F)c(C(=O)O)c3)cc2S1(=O)=O` [Example 296] belongs less than 100 nM.
In the case of `CN1[C@H](C2CCCCC2)CN(c2ccccc2)c2cc(Oc3ccncc3)c(-c3ccc(F)c(C(=O)O)c3)cc2S1(=O)=O` [Example 416], the EC50 was greater than 1000 nM.
Under `CC(C)C[C@@H]1CN(c2ccccc2)c2cc(Cl)c(-c3ccc4o[nH]c(=O)c4c3)cc2S(=O)(=O)N1C` [Example 180] stands 100 to 1000 nM.
Turning to `CN1[C@H](C2CCCCC2)CN(c2ccc(C(F)(F)F)cc2)c2cc(Cl)c(-c3ccc(F)c(C(=O)O)c3)cc2S1(=O)=O` [Example 300], the EC50 was less than 100 nM.
In the case of `CC(C)C[C@@H]1CN(c2ccccc2)c2cc(N(C)c3ccccc3F)c(-c3ccc(Cl)c(C(=O)O)c3)cc2S(=O)(=O)N1C` [Example 556], the EC50 lay in the range of 100 to 1000 nM.
As to `CC(C)CC1CN(c2ccccc2)c2cc(Cl)c(-c3cc(F)cc(C(=O)O)c3)cc2S(=O)(=O)N1C` (stereo not shown) [Example 36], the EC50 was 100 to 1000 nM.
Turning to `CN1[C@H](C2CCCCC2)CN(c2ccccc2)c2cc(OCc3csc(Cl)c3)c(-c3cc(F)c(C(=O)O)s3)cc2S1(=O)=O` [Example 487], the EC50 was less than 100 nM.
As for `CN1[C@H](CC(C)(C)C)CN(c2ccccc2)c2cc(Cl)c(-c3ccc(Cl)c(C(=O)O)c3)cc2S1(=O)=O` [Example 51], the EC50 is less than 100 nM.
In the case of `CN1[C@H](C2CCCCC2)CN(c2ccccc2)c2cc(Cl)c(-c3cc(C(=O)O)[nH]n3)cc2S1(=O)=O` [Example 135, (R)-3-(7-chloro-3-cyclohexyl-2-methyl-1,1-dioxido-5-phenyl-2,3,4,5-tetrahydrobenzo[f][1,2,5]thiadiazepin-8-yl)-1H-pyrazole-5-carboxylic acid], the EC50 is 100 to 1000 nM.
Turning to `CN1[C@H](CCc2ccccc2)CN(c2ccccc2)c2cc(Cl)c(-c3ccc(F)c(C(=O)O)c3)cc2S1(=O)=O` [Example 53], the EC50 was greater than 1000 nM.
Consider `CN1[C@H](C2CCC2)CN(c2ccccc2)c2cc(Cl)c(-c3cccc(S(N)(=O)=O)c3)cc2S1(=O)=O` [Example 178], for which the EC50 was greater than 1000 nM.
`Cc1cc(-c2cc3c(cc2Cl)N(c2ccccc2)C[C@@H](C2CCCCC2)N(C)S3(=O)=O)oc1C(=O)O` [Example 124]: the EC50 was less than 100 nM.
For the molecule `CCCCCCCC[C@@H]1CN(c2ccccc2)c2cc(Cl)c(-c3ccc(F)c(C(=O)O)c3)cc2S(=O)(=O)N1C` [Example 82, (R)-5-(7-chloro-2-methyl-3-octyl-1,1-dioxido-5-phenyl-2,3,4,5-tetrahydrobenzo[f][1,2,5]thiadiazepin-8-yl)-2-fluorobenzoic acid], the EC50 was greater than 1000 nM.
To `CN1C(C23CC(C(F)(F)F)(C2)C3)CN(c2ccccc2)c2cc(Cl)c(-c3ccc(F)c(C(=O)O)c3)cc2S1(=O)=O` (stereo not shown) [Example 87] belongs 100 to 1000 nM; to `CC(C)CCOc1cc2c(cc1-c1ccc(F)c(C(=O)O)c1)S(=O)(=O)N(C)[C@H](C1CCCCC1)CN2c1ccccc1` [Example 359], less than 100 nM.
In the case of `CN1[C@H](C2CCC2)CN(c2ccccc2)c2cc(Cl)c(-c3ccc(F)c(C(=O)O)c3)cc2S1(=O)=O` [Example 80, (R)-5-(7-chloro-3-cyclobutyl-2-methyl-1,1-dioxido-5-phenyl-2,3,4,5-tetrahydrobenzo[f][1,2,5]thiadiazepin-8-yl)-2-fluorobenzoic acid], the 50% effective concentration (EC50) is less than 100 nM.
`CO[C@@H]1CCN(c2cc3c(cc2-c2ccc(F)c(C(=O)O)c2)S(=O)(=O)N(C)[C@H](C2CCCCC2)CN3c2ccccc2)C1` [Example 531]: the EC50 was less than 100 nM.
Turning to `CCCC[C@@H]1CN(c2ccccc2)c2cc(Nc3ccccc3F)c(-c3ccc(F)c(C(=O)O)c3)cc2S(=O)(=O)N1C` [Example 522], the concentration for a half-maximal effect (EC50) was less than 100 nM.
As for `CN1[C@H](C2CCCCC2)CN(c2ccccc2)c2cc(Cl)c(-c3ccc(NS(=O)(=O)Cc4ccccc4)c(C(=O)O)c3)cc2S1(=O)=O` [Example 269], the EC50 is less than 100 nM.
Under `Cc1cncc(N2C[C@@H](C3CCCCC3)N(C)S(=O)(=O)c3cc(-c4ccc(F)c(C(=O)O)c4)c(Cl)cc32)c1` [Example 281] stands less than 100 nM.
For the molecule `CC(C)C[C@@H]1CN(c2ccccc2)c2cc(Cl)c(-c3cccc(C(N)=O)c3)cc2S(=O)(=O)N1C` [Example 167], the EC50 is greater than 1000 nM.
On to `CN1[C@H](C2CCCCC2)CN(c2ccccc2)c2cc(Cl)c(-c3cc(NC(=O)OC4CCC4)c(C(=O)O)s3)cc2S1(=O)=O` [Example 250], for which the EC50 is less than 100 nM.
Turning to `CN1[C@H](C2CCCCC2)CN(c2ccccc2)c2cc(Oc3cc(F)ccc3F)c(-c3ccc(F)c(C(=O)O)c3)cc2S1(=O)=O` [Example 403], the EC50 was less than 100 nM.
To `CN1[C@H](C2CCCCC2)CN(c2cncc(F)c2)c2cc(Cl)c(-c3ccc(F)c(C(=O)O)c3)cc2S1(=O)=O` [Example 280, (R)-5-(7-chloro-3-cyclohexyl-5-(5-fluoropyridin-3-yl)-2-methyl-1,1-dioxido-2,3,4,5-tetrahydrobenzo[f][1,2,5]thiadiazepin-8-yl)-2-fluorobenzoic acid] belongs 100 to 1000 nM; to `O=C(O)c1cc(-c2cc3c(cc2F)N(c2ccccc2)CC2c4ccccc4CN2S3(=O)=O)ccc1F` (stereo not shown) [Example 4], 100 to 1000 nM.
Under `CN1[C@H](C2CCCCC2)CN(c2ccccc2)c2cc(Cl)c(-c3cc(NC(=O)OCC4(C)CC4)c(C(=O)O)s3)cc2S1(=O)=O` [Example 254] stands less than 100 nM; under `COc1cc(-c2cc3c(cc2Cl)N(c2ccccc2)C[C@@H](C2CCCCC2)N(C)S3(=O)=O)cc(C(=O)O)c1NC(=O)OCC(C)C` [Example 278], less than 100 nM.
On to `CC(C)C[C@@H]1CN(c2ccccc2)c2cc(Cl)c(-c3ccc(Cl)c(C(=O)O)c3)cc2S(=O)(=O)N1C` [Example 60], for which the EC50 is less than 100 nM.
In the case of `CCC[C@@H]1CN(c2ccccc2)c2cc(Cl)c(-c3ccc(F)c(C(=O)O)c3)cc2S(=O)(=O)N1C` [Example 47], the EC50 lay in the range of 100 to 1000 nM.
Take `CC(C)C[C@@H]1CN(c2ccccc2)c2cc(Oc3cccc(C(F)(F)F)c3)c(-c3ccc(F)c(C(=O)O)c3)cc2S(=O)(=O)N1C` [Example 425]: the EC50 was less than 100 nM.
To `CN1[C@H](C2CCCCC2)CN(c2ccccc2)c2cc(Cl)c([C@H]3C[C@@H](C(=O)O)C3)cc2S1(=O)=O` [Example 607, (1S,3s)-3-((R)-7-chloro-3-cyclohexyl-2-methyl-1,1-dioxido-5-phenyl-2,3,4,5-tetrahydrobenzo[f][1,2,5]thiadiazepin-8-yl)cyclobutane-1-carboxylic acid] belongs greater than 1000 nM; to `CC(C)C[C@@H]1CN(c2ccccc2)c2cc(Cl)c(-c3ccc4[nH]cc(C(=O)O)c4c3)cc2S(=O)(=O)N1C` [Example 212], greater than 1000 nM.
For `CC(C)C[C@@H]1CN(c2ccccc2)c2cc(Oc3ccc(Cl)cc3)c(-c3ccc(F)c(C(=O)O)c3)cc2S(=O)(=O)N1C` [Example 433], the EC50 is 100 to 1000 nM.
Consider `CCCCC1CN(c2ccccc2)c2cc(Cl)c(-c3ccc(F)c(C(=O)O)c3)cc2S(=O)(=O)N1C` (stereo not shown) [Example 71], for which the EC50 fell in the range of 100 to 1000 nM.
Regarding `COCCOc1cc2c(cc1-c1ccc(Cl)c(C(=O)O)c1)S(=O)(=O)N(C)[C@H](CC(C)C)CN2c1ccccc1` [Example 445], the EC50 was 100 to 1000 nM.
On to `CC(C)CC1CN(c2ccccc2)c2cc(N3CCCCC3)c(-c3cccc(C(=O)O)c3)cc2S(=O)(=O)N1C` (stereo not shown) [Example 545], for which the EC50 was less than 100 nM.
Take `CC(C)CC1CN(c2ccccc2)c2cc(Cl)c(-c3ccc(F)c(C(=O)O)c3)cc2S(=O)(=O)N1C` (stereo not shown) [Example 34]: the half-maximal effective concentration (EC50) was less than 100 nM.
To `CC(C)C[C@@H]1CN(c2ccccc2)c2cc(OCC3CCCN3C)c(-c3ccc(F)c(C(=O)O)c3)cc2S(=O)(=O)N1C` (stereo partly shown) [Example 449] belongs greater than 1000 nM; to `CC(C)C[C@@H]1CN(c2ccccc2)c2cc(Oc3cc(Cl)cc(Cl)c3)c(-c3ccc(F)c(C(=O)O)c3)cc2S(=O)(=O)N1C` [Example 435], less than 100 nM; to `CCCC[C@H]1CN(c2ccccc2)c2cc(N3CCCC3)c(-c3cccc(C(=O)O)c3)cc2S(=O)(=O)N1C` [Example 538], greater than 1000 nM.
For `Cc1sc(-c2cc3c(cc2Cl)N(c2ccccc2)C[C@@H](C2CCCCC2)N(C)S3(=O)=O)cc1C(=O)O` [Example 122], the 50% effective concentration (EC50) was less than 100 nM.
`CCCCOc1ccc(N2C[C@@H](C3CCCCC3)N(C)S(=O)(=O)c3cc(-c4ccc(F)c(C(=O)O)c4)c(Cl)cc32)cc1` [Example 311]: the EC50 lay within 100 to 1000 nM.
As to `Cc1ccc(C(=O)O)cc1-c1cc2c(cc1Cl)N(c1ccccc1)C[C@@H](C1CCCCC1)N(C)S2(=O)=O` [Example 145, (R)-3-(7-chloro-3-cyclohexyl-2-methyl-1,1-dioxido-5-phenyl-2,3,4,5-tetrahydrobenzo[f][1,2,5]thiadiazepin-8-yl)-4-methylbenzoic acid], the EC50 was greater than 1000 nM.
As for `Cc1ccc(F)cc1Oc1cc2c(cc1-c1ccc(F)c(C(=O)O)c1)S(=O)(=O)N(C)[C@H](C1CCCCC1)CN2c1ccccc1` [Example 413], the EC50 is 100 to 1000 nM.
With `CN1[C@H](C2CCCCC2)CN(c2ccccc2)c2cc(Cl)c(-c3nc(C(=O)O)co3)cc2S1(=O)=O` [Example 131, (R)-2-(7-chloro-3-cyclohexyl-2-methyl-1,1-dioxido-5-phenyl-2,3,4,5-tetrahydrobenzo[f][1,2,5]thiadiazepin-8-yl)oxazole-4-carboxylic acid], the EC50 lay within 100 to 1000 nM.
To `CC(C)C[C@@H]1CN(c2ccccc2)c2cc(Cl)c(-c3cccc(C4(C(=O)O)CC4)c3)cc2S(=O)(=O)N1C` [Example 162] belongs greater than 1000 nM.
